In the assay the target is T1, Human Neutrophil Elastase (Homo sapiens, UniProt P08246).
T1 construct: Human Neutrophil Elastase (FINE) purified from serum (Calbiochem art. 324681); purchased Calbiochem 324681; host or cells: natural enzyme, purified from serum
T1 sequence (P08246 30-267): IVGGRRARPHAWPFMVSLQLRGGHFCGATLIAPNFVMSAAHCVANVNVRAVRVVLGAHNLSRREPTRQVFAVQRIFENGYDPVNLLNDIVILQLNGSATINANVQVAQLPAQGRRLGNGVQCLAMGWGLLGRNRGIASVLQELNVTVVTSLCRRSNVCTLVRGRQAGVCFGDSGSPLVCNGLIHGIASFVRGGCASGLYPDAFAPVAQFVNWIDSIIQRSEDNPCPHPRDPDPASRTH
In words: Human Neutrophil Elastase Quenched-FRET Assay. It is filed as biochemical. The conditions noted are these: HNE purified from serum; substrate MeOSuc-AAPV-AMC; 15 min preincubation, 30 min incubation at room temperature; read-out: Inhibition of Human Neutrophil Elastase IC50. Here is the method:
Human Neutrophil Elastase Quenched-FRET Assay
HNE was stored in 50 mM NaOAc, 200 mM NaCl, pH 5.5 with added 30% glycerol at −20° C. […] The substrate was stored in DMSO at −20° C. […] The assay buffer constitution was: 100 mM Tris (pH 7.5) and 500 mM NaCl. The enzyme and the compounds were incubated at room temperature for 15 minutes. Then 30 μl substrate in assay buffer was added. The assay was stopped after 30 minutes incubation at room temperature by adding 60 μl stop solution (140 mM acetic acid, 200 mM sodium monochloroacetate, 60 mM sodium acetate, pH 4.3).

The term IC50 denotes the concentration that gives 50% inhibition.

In the case of `Cc1nnc(-c2cc(C(=O)NCc3ccc(S(=O)(=O)C4CC4)cc3)c(=O)n(-c3cccc(C(F)(F)F)c3)c2C)o1` [Example 46, N-[4-(Cyclopropylsulfonyl)benzyl]-6-methyl-5-(5-methyl-1,3,4-oxadiazol-2-yl)-2-oxo-1-[3-(trifluoromethyl)phenyl]-1,2-dihydropyridine-3-carboxamide], the IC50 came to 7 nM.

Turning to `Cc1c(-c2ccoc2)cc(C(=O)NCc2ccc(S(C)(=O)=O)cc2)c(=O)n1-c1cccc(C(F)(F)F)c1` [Example 2, 5-Furan-3-yl-6-methyl-2-oxo-1-(3-trifluoromethyl-phenyl)-1,2-dihydro-pyridine-3-carboxylic acid 4-methanesulfonyl-benzylamide], the IC50 amounted to 46 nM.

`Cc1noc(C)c1-c1cc(C(=O)NCc2ccc(S(=O)(=O)C(C)C)cc2)c(=O)n(-c2cccc(C(F)(F)F)c2)c1C` [Example 32, 5-(3,5-Dimethylisoxazol-4-yl)-N-[4-(isopropylsulfonyl)benzyl]-6-methyl-2-oxo-1-[3-(trifluoromethyl)phenyl]-1,2-dihydropyridine-3-carboxamide]: the IC50 came to 3 nM.

Consider `Cc1cc(CNC(=O)c2cc(-c3ccnn3C)c(C)n(-c3cccc(C(F)(F)F)c3)c2=O)on1` [Example 91, 6-Methyl-5-(2-methyl-2H-pyrazol-3-yl)-2-oxo-1-(3-trifluoromethyl-phenyl)-1,2-dihydro-pyridine-3-carboxylic acid (3-methyl-isoxazol-5-ylmethyl)-amide], for which the IC50 came out at 12 nM.

For `Cc1c(-c2ccccc2)cc(C(=O)NCc2ccc(S(C)(=O)=O)cc2)c(=O)n1-c1cccc(C(F)(F)F)c1` [Example 1, 6-Methyl-N-[4-(methylsulfonyl)benzyl]-2-oxo-5-phenyl-1-[3-(trifluoromethyl)phenyl]-1,2-dihydropyridine-3-carboxamide], the IC50 worked out at 47 nM.

`COc1ncc(-c2cc(C(=O)NCc3ccc(S(C)(=O)=O)cc3)c(=O)n(-c3cccc(C(F)(F)F)c3)c2C)cn1` [Example 5, 5-(2-Methoxypyrimidin-5-yl)-6-methyl-N-[4-(methylsulfonyl)benzyl]-2-oxo-1-[3-(trifluoromethyl)phenyl]-1,2-dihydropyridine-3-carboxamide]: the IC50 turned out to be 48 nM.

The values above are taken from US8501784B2, “2-pyridone derivatives as neutrophil elastase inhibitors and their use” (Astrazeneca AB, priority 2003, dated 2013).
